The test system of the assay is human cardiac fibroblasts. Nature of the assay: Cell-based inhibition assay of generation of procollagen I C-terminal propeptide (PICP), PICP ELISA. The conditions noted are these: Cardiac fibroblast, read-out: pIC50, PICP cellular inhibition assay (converted). On the procedure: Cell-Based Inhibition Assay of Generation of Procollagen I C-Terminal Propeptide (PICP) and Mature Collagen:
An adaptation of the collagen deposition assay described by Chen, C. Z. C., et al., British Journal of Pharmacology, 2009, 158, 1196-1209 was used to examine effect of compounds on procollagen I processing and collagen deposition. In the adapted assay, human cardiac fibroblasts were utilized. Processing of procollagen I was determined by a PICP ELISA assay and deposition of mature collagen was determined by immunostaining.
Human cardiac fibroblasts were cultured and maintained until passage 6 in FGM-3 media (Lonza, #CC-3132) in a 37° C. humidified incubator with 5% CO2. They were then seeded in 96-well black wall, clear bottom plates at 10,000 to 15,000 cells per well in eagle's minimum essential media (EMEM, ATCC #30-2003) containing 10% fetal bovine serum (FBS, Life Technologies #10082147), 1% Glutamax (Life Technologies #35050061) and 1% Penicillin and Streptomycin (Life Technologies #15070063). These cultures were placed in 37° C. incubator. The next day, media were removed by aspiration and cells were rinsed with phosphate buffered saline. Crowding media (also called ficoll media) was prepared by adding 112.5 mg/ml of ficoll70 and 75 mg/ml ficoll400 (GE healthcare #17-0310-10 and 17-0300-10, respectively), 100 μM ascorbic acid, 1% Glutamax and 1% Penicillin and Streptomycin to EMEM media. Test compounds (dissolved in DMSO) were diluted into crowding media and then added to the cells. Final concentration of DMSO in crowding media was less than 0.3%. Cells were treated for 24 to 48 hr in a 37° C. incubator. At the end of the treatment period, cell media were collected. The level of PICP in the media were determined by a PICP ELISA assay (Quidel #8003) following the manufacturer's protocol. Potencies of test compounds were calculated by fitting PICP levels, relative to untreated controls, to log (inhibitor) vs. response equation using Graphpad Prism software 5.0 and expressed as pIC50.
For orientation: An ELISA detects its analyte on a solid surface through an enzyme-linked reagent.

Setting [1] is: human cardiac fibroblasts, crowding media, 24 to 48 hr, PICP ELISA of media.

Where a name gives a salt, the structure may show the parent alone. Read-outs that look alike come from different tables or passages of the source.

The record followed here is US10450288B2, “Hydroxy formamide derivatives and their use” (GLAXOSMITHKLINE INTELLECTUAL PROPERTY (NO.2) LIMITED, priority 2014, dated 2019).

Take `CCOc1cc(C(=O)O)c(O)c(-c2ccc(C(=O)NCNC(=O)[C@H](CCc3ccccc3)[C@@H](CC)N(O)C=O)o2)c1` [Example 115, 5-ethoxy-2-hydroxy-3-(5-((((2R,3R)-3-(N-hydroxyformamido)-2-phenethylpentanamido)methyl)carbamoyl)furan-2-yl)benzoic acid]: under setting [1], the IC50 is below 3.98 µM. Regarding `CCCCC[C@H](CN(O)C=O)C(=O)NCNC(=O)c1ccc(-c2ccc(F)c(C(=O)O)c2)o1` [Example 91, (R)-2-fluoro-5-(5-(((2-((N-hydroxy-formamido)methyl)heptanamido)methyl)carbamoyl)furan-2-yl)benzoic acid], under setting [1], the IC50 was below 3.98 µM. Turning to `CCCCC[C@@H](C(=O)NCNC(=O)c1ccc(-c2ccc(C(=O)N[C@@H](CC(=O)O)C(=O)O)c(C)c2)o1)[C@@H](CC)N(O)C=O` [Example 120, (S)-2-(4-(5-((((R)-2-((R)-1-(N-hydroxyformamido)propyl)heptanamido)methyl)carbamoyl)furan-2-yl)-2-methylbenzamido) succinic acid], under setting [1], the IC50 was below 3.98 µM.

Turning to `CCCCC[C@@H](C(=O)NCNC(=O)c1ccc(-c2cc(OCC)cc(C(=O)N(CC(=O)O)CC(=O)O)c2)o1)[C@@H](CC)N(O)C=O` [Example 87, 2,2′-((3-ethoxy-5-(5-((((R)-2-((R)-1-(N-hydroxy-formamido)propyl)heptanamido)methyl)carbamoyl)furan-2-yl)benzoyl)azanediyl) diacetic acid], the IC50 under setting [1] was below 3.98 µM.

Take `CCCCC[C@H](CN(O)C=O)C(=O)NCNC(=O)c1ccc(-c2ccc(F)c(C(=O)O)c2F)o1` [Example 78]: under setting [1], the IC50 is below 3.98 µM. Consider `CCCCC[C@H](CN(O)C=O)C(=O)NCNC(=O)c1ccc(-c2cc(OCC)cc(C(=O)OC)c2)o1` [Example 26], for which the IC50 under setting [1] was below 3.98 µM. As for `CCCCC[C@@H](C(=O)NCNC(=O)c1ccc(-c2cc(CNCP(=O)(O)O)cc(OCC)c2)o1)[C@@H](CC)N(O)C=O` [Example 137, (((3-ethoxy-5-(5-((((R)-2-((R)-1-(N-hydroxyformamido)propyl)heptanamido)methyl)carbamoyl)furan-2-yl)benzyl)amino)methyl)phosphonic acid, trifluoroacetic acid salt], the IC50 under setting [1] was below 3.98 µM.

Consider `CCCCC[C@@H](C(=O)NCNC(=O)c1ccc(-c2cc(OCC(=O)O)cc(C(=O)N[C@@H](CC(=O)O)C(=O)O)c2)o1)[C@@H](CC)N(O)C=O` [Example 125, (S)-2-(3-(carboxymethoxy)-5-(5-((((R)-2-((R)-1-(N-hydroxyformamido)propyl)heptanamido)methyl)carbamoyl)furan-2-yl)benzamido) succinic acid], for which, under setting [1], the IC50 is below 3.98 µM. Regarding `CCCCC[C@@H](C(=O)NCNC(=O)c1ccc(-c2ccc(C(=O)O)c(C(=O)O)c2)o1)[C@@H](CC)N(O)C=O` [Example 129, 4-(5-((((R)-2-((R)-1-(N-hydroxyformamido)propyl)heptanamido)methyl)carbamoyl)furan-2-yl)phthalic acid], the IC50 under setting [1] was below 3.98 µM. As to `CCCCC[C@@H](C(=O)NCNC(=O)c1ccc(-c2cc(OCC)cc(P(=O)(O)OC)c2)o1)[C@@H](CC)N(O)C=O` [Example 101, methyl hydrogen (3-ethoxy-5-(5-((((R)-2-((R)-1-(N-hydroxyformamido)propyl)heptanamido)methyl)carbamoyl)furan-2-yl)phenyl)phosphonate], for the setting “Homo sapiens”, the IC50 is below 3.98 µM. For the compound `CCCCC[C@H](CN(O)C=O)C(=O)NCNC(=O)c1ccc(-c2cc(OCC)cc(C(=O)NCCN)c2)o1` [Example 34, (R)-5-(3-((2-aminoethyl)carbamoyl)-5-ethoxyphenyl)-N-((2-((N-hydroxyformamido)methyl)heptanamido)methyl) furan-2-carboxamide], under setting [1], the IC50 is below 3.98 µM. For the compound `CCCCC[C@@H](C(=O)NCNC(=O)c1ccc(-c2cc(OCC)cc(C(=O)N[C@@H](CCC(=O)OC)C(=O)OC)c2)o1)[C@@H](CC)N(O)C=O` [Example 48, (S)-dimethyl 2-(3-ethoxy-5-(5-((((R)-2-((R)-1-(N-hydroxyformamido)propyl)heptanamido)methyl)carbamoyl)furan-2-yl)benzamido) pentanedioate], the IC50 under setting [1] is below 3.98 µM. For `CCCCC[C@H](CN(O)C=O)C(=O)NCNC(=O)c1ccc(-c2cc(OC)cc(OC)c2)o1` [Example 52, (R)-5-(3,5-dimethoxyphenyl)-N-((2-((N-hydroxyformamido)methyl)heptanamido)methyl)furan-2-carboxamide], the IC50 under setting [1] was below 3.98 µM. Turning to `CCCCC[C@@H](C(=O)NCNC(=O)c1ccc(-c2cc(O)cc(P(=O)(O)O)c2)o1)[C@@H](CC)N(O)C=O` [Example 138, (3-hydroxy-5-(5-((((R)-2-((R)-1-(N-hydroxyformamido)propyl)heptanamido)methyl)carbamoyl)furan-2-yl)phenyl) phosphonic acid], under setting [1], the IC50 is below 3.98 µM. Still for that read-out and setting: for `CCCCC[C@H](CN(O)C=O)C(=O)NCNC(=O)c1ccc(-c2ccc(O)c(C(=O)O)c2)o1` [Example 62, (R)-2-hydroxy-5-(5-(((2-((N-hydroxyformamido)methyl)heptanamido)methyl)carbamoyl)furan-2-yl)benzoic acid] the value was below 3.98 µM; for `CCCCC[C@H](CN(O)C=O)C(=O)NCNC(=O)c1ccc(-c2cccc(C(=O)O)c2)o1` [Example 89, (R)-3-(5-(((2-((N-hydroxyformamido)methyl)heptanamido)methyl)carbamoyl)furan-2-yl)benzoic acid], below 3.98 µM. On to `CCCCC[C@H](CN(O)C=O)C(=O)NCNC(=O)c1ccc(-c2cccc([N+](=O)[O-])c2)o1` [Example 105, (R)—N-((2-((N-hydroxyformamido)methyl)heptanamido)methyl)-5-(3-nitrophenyl)furan-2-carboxamide], for which the IC50 under setting [1] is below 3.98 µM. The same measure, in the same setting: the result for `CCCCC[C@H](CN(O)C=O)C(=O)NCNC(=O)c1ccc(-c2cccc(CC(=O)O)c2)o1` [Example 60, (R)-2-(3-(5-(((2-((N-hydroxyformamido)methyl)heptanamido)methyl)carbamoyl)furan-2-yl)phenyl)acetic acid] reads below 3.98 µM. `CCCCC[C@@H](C(=O)NCNC(=O)c1ccc(-c2cc(OCC)cc(P(=O)(OC)OC)c2)o1)[C@@H](CC)N(O)C=O` [Example 50, dimethyl (3-ethoxy-5-(5-((((R)-2-((R)-1-(N-hydroxyformamido)propyl)heptanamido)methyl)carbamoyl)furan-2-yl)phenyl)phosphonate]: the IC50 (Homo sapiens) is below 3.98 µM.

On to `CCCCC[C@H](CN(O)C=O)C(=O)NCNC(=O)c1ccc(-c2cccc(C(=O)O)c2F)o1` [Example 59, (R)-2-fluoro-3-(5-(((2-((N-hydroxyformamido)methyl)heptanamido)methyl)carbamoyl)furan-2-yl)benzoic acid], for which the IC50 under setting [1] is below 3.98 µM.

Take `CCCCC[C@@H](C(=O)NCNC(=O)c1ccc(-c2ccc(C(=O)O)cc2)o1)[C@@H](CC)N(O)C=O` [Example 71, 4-(5-((((R)-2-((R)-1-(N-hydroxyformamido)propyl)heptanamido)methyl)carbamoyl)furan-2-yl)benzoic acid]: the IC50 (Homo sapiens) was below 3.98 µM.

Turning to `CCCCC[C@H](CN(O)C=O)C(=O)NCNC(=O)c1ccc(-c2cccc(C(C)C(=O)O)c2)o1` (stereo partly drawn) [Example 76, 2-(3-(5-((((R)-2-((N-hydroxyformamido)methyl)heptanamido)methyl)carbamoyl)furan-2-yl)phenyl)propanoic acid], the IC50 under setting [1] is below 3.98 µM. Take `CCCCC[C@H](CN(O)C=O)C(=O)NCNC(=O)c1ccc(-c2cc(OC)cc(C(=O)O)c2)o1` [Example 29, (R)-3-(5-(((2-((N-hydroxyformamido)methyl)heptanamido)methyl)carbamoyl)furan-2-yl)-5-methoxybenzoic acid]: the IC50 (Homo sapiens) is below 3.98 µM. `CCCCC[C@@H](C(=O)NCNC(=O)c1ccc(-c2ccc(C(=O)O)c(CC(=O)O)c2)o1)[C@@H](CC)N(O)C=O` [Example 114]: the IC50 under setting [1] was below 3.98 µM. Still for that read-out and setting: the result for `CCCCC[C@@H](C(=O)NCNC(=O)c1ccc(-c2ccc(CC(=O)O)c(OCC)c2)o1)[C@@H](CC)N(O)C=O` [Example 41, 2-(2-ethoxy-4-(5-((((R)-2-((R)-1-(N-hydroxyformamido)propyl)heptanamido)methyl)carbamoyl)furan-2-yl)phenyl)acetic acid] reads below 3.98 µM; that for `CCCCC[C@@H](C(=O)NCNC(=O)C1CCC(c2cc(OCC)cc(P(=O)(O)O)c2)O1)[C@@H](CC)N(O)C=O` (stereo partly drawn) [Example 97, (3-ethoxy-5-(5-((((R)-2-((R)-1-(N-hydroxyformamido)propyl)heptanamido)methyl)carbamoyl)tetrahydrofuran-2-yl)phenyl)phosphonic acid], below 3.98 µM.
